Measured values as given in US6001884A, “Calcium receptor-active molecules” (NPS Pharmaceuticals, Inc., priority 1995, dated 1999).
Structures can show the parent of a compound that is named as a salt. Where two headings read alike, the source gives them in different places.

Biological target: T1, calcium receptor (Homo sapiens, UniProt P41180)
T1 sequence (P41180 20-1078): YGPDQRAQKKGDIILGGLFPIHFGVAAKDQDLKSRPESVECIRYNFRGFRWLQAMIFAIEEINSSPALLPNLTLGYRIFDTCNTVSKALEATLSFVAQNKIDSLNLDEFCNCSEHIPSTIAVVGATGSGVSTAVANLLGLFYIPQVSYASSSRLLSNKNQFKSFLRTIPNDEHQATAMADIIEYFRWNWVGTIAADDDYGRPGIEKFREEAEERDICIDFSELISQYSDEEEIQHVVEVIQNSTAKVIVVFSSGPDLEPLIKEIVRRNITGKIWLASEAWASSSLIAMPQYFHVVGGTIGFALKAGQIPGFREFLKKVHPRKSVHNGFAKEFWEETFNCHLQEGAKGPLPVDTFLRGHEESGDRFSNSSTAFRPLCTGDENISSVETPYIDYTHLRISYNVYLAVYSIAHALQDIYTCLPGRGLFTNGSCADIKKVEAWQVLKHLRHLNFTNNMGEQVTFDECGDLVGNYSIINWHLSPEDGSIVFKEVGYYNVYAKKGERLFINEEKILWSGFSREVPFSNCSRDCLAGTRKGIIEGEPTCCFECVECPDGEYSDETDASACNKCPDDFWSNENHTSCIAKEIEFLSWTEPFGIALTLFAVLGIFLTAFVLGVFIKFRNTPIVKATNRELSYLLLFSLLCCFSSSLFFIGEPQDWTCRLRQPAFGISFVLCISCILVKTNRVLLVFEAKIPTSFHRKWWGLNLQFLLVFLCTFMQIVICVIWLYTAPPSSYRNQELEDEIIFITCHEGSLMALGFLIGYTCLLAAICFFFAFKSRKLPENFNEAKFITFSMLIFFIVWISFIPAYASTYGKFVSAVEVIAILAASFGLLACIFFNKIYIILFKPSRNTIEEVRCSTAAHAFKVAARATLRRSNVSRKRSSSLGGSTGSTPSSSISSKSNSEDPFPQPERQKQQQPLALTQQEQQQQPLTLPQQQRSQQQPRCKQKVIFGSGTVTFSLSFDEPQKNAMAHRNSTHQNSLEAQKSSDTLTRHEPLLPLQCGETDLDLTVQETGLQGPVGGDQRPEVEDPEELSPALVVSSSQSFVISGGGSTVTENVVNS
Assay: EC50 (concentration evoking a half-maximal effect) at an inorganic ion receptor / calcium receptor
Format: cell-based
Description: The EC50 is the concentration of the molecule which evokes a half-maximal effect. The IC50 is the concentration of molecule which causes a half-maximal blocking effect. The EC50 or IC50 can be determined by assaying one or more of the activities of an inorganic ion at an inorganic ion receptor. Preferably, such assays are specific to a particular calcium receptor. For example, assays which measure hormones whose production or secretion is modulated by a particular inorganic ion receptor are preferred.
Nemeth et al., PCT/US93/01642, International Publication Number WO 94/18959. For example, poly(A)^+ mRNA can be obtained from cells expressing a calcium receptor, such as a parathyroid cell, bone osteoclast, juxtaglomerular kidney cell, proximal tubule kidney cell, distal tubule kidney cell, cell of the thick ascending limb of Henle's loop and/or collecting duct, keratinocyte in the epidermis, parafollicular cell in the thyroid (C-cell), intestinal cell, central nervous cell, peripheral nervous system cell, trophoblast in the placenta, platelet, vascular smooth muscle cell, cardiac atrial cell, gastrin-secreting cell, glucagon-secreting cell, kidney mesangial cell, mammary cell, beta cell, fat/adipose cell, immune cell, and GI tract cell. Preferably, the nucleic acid is from a parathyroid cell, C-cell, or osteoclast. More preferably, the nucleic acid encodes a calcium receptor and is present on a plasmid or vector.

[1] = concentration of the molecule which evokes a half-maximal effect, preferred agents, cell type and assay read-out not stated, read-out: EC50

| SMILES | EC50 [1] [µM] | EC50 [µM] |
| --- | --- | --- |
| COc1cccc([C@@H](C)NCCCc2cccc(C)c2)c1 [Compound 12V, N-3-(3-methylphenyl)-1-propyl-(R)-3-methoxy-α-methylbenzylamine hydrochloride] | < 5 | – |
| C[C@@H](NCCCc1ccccc1Cl)c1cccc2ccccc12 [Compound 12Z, N-3-(2-chlorophenyl)-1-propyl-(R)-1-(1-naphthyl)ethylamine hydrochloride] | – | < 5 |
| COc1ccc([C@@H](C)N[C@H](C)c2cccc3ccccc23)cc1 [Compound 14U, (R)-N-(1-(4-methoxyphenyl)ethyl)-(R)-1-(1-naphthyl)ethylamine hydrochloride] | < 5 | – |
| COc1ccc(CN[C@H](C)c2cccc3ccccc23)cc1Cl [Compound 16M, N-(3-chloro-4-methoxybenzyl)-(R)-1-(1-naphthyl)ethylamine hydrochloride] | < 5 | – |
| COc1ccc([C@@H](C)N[C@H](C)c2cccc3ccccc23)cc1C [Compound 16P, (R)-N-(1-(4-Methoxy-3-methylphenyl)ethyl)-(R)-1-(1-naphthyl)ethylamine hydrochloride] | < 5 | – |

More lines, main results first:

| EC50 [1] [µM] | SMILES | EC50 [µM] |
| --- | --- | --- |
| < 5 | CSc1cccc(C(C)NCCCc2ccccc2)c1 (racemic) [Compound 8J, N-(3-phenylpropyl)-1-(3-thiomethylphenyl)ethylamine hydrochloride] | – |
| < 5 | COc1cccc([C@@H](C)NCCCc2ccccc2OC)c1 [Compound 8U, N-3-(2-methoxyphenyl)-1-propyl-(R)-3-methoxy-α-methylbenzylamine hydrochloride] | – |
| < 5 | C[C@@H](N[C@H](C)c1cccc2ccccc12)c1ccc2ccccc2c1 [Compound 9R, (R)-N-(1-(2-naphthyl)ethyl)-(R)-1-(1-naphthyl)ethylamine hydrochloride] | – |
| < 5 | CC(C)c1ccc(CN[C@H](C)c2cccc3ccccc23)cc1 [Compound 11X, N-(4-Isopropylbenzyl)-(R)-1-(1-naphthyl)ethylamine hydrochloride] | – |
| < 5 | COc1cccc([C@@H](C)NCCCc2ccccc2C)c1 [Compound 12U, N-3-(2-methylphenyl)-1-propyl-(R)-3-methoxy-α-methylbenzylamine hydrochloride] | – |
